Here are results for 27 molecules from patent publication US4598095A (priority 1982, dated 1986).

In data set [1] the test system is influenza virus, Adachi strain of A2-type. As to the kind of experiment: microbe, parasite or virus in culture. In kind it is cell-based. The note with it: for virus proliferation-inhibiting index: 50% toxicity concentration / 50% virus proliferation-inhibiting concentration, 2880 min; for IC50: 48 h, read-out: 50% Virus Proliferation-Inhibiting Concentration.
Data set [2] relates to rice blast fungus (Pyricularia oryzae). As to the kind of experiment: whole plant or invertebrate. As to conditions: 168 h, read-out: Protective Value. Format: in vivo.
The nature of a further data set: in vitro. As to conditions: chicken, chorioallantoic membrane.

≈ marks a conversion by molar mass, not a printed value. Counter-ions that a name gives are not always drawn.

On to `CCCC(=NNC(=NC)SC)c1ccc(Cl)cc1` [Compound 28], for which, in data set [1], the virus proliferation-inhibiting index worked out at 12.6 and the IC50 is 63 µg/mL (≈ 222 µM). Further, the pest or weed control at 400 ppm in data set [2] came out at 94%. Further, the CC50 at 48 h in the data set “in vitro” turned out to be 794 µg/mL (≈ 2800 µM).
Taken in the same sequence, the figures for `CSC(=N)NN=C(C)c1ccccc1` [Compound 21] were 12.6, 12.5 µg/mL (≈ 60.3 µM), 100% and 158 µg/mL (≈ 760 µM).
For the molecule `COc1ccc(C(C)=NNC(=N)SC)cc1` [Compound 35], in data set [1], the virus proliferation-inhibiting index was determined as 7.0 and the IC50 turned out to be 14.2 µg/mL (≈ 59.8 µM). Moreover, in data set [2], the pest or weed control at 400 ppm was determined as 100%. In the data set “in vitro”, this molecule showed a CC50 at 48 h of 99.4 µg/mL (≈ 419 µM).
With `CC(=NNC(=N)SCc1ccccc1)c1ccccc1` [Compound 22], in data set [2], the pest or weed control at 400 ppm was 90%.
On to `CCCCSC(=N)NN=C(C)c1ccc(OC)cc1` [Compound 36], for which, in data set [2], the pest or weed control at 400 ppm worked out at 95%.
Regarding `CCCCOc1ccc(C=CC(C)=NNC(=N)SC)cc1` [Compound 44], the pest or weed control at 400 ppm in data set [2] turned out to be 100%.
Take `CSC(=N)NN=C(C)c1ccc(O)cc1` [Compound 34]: the pest or weed control at 400 ppm in data set [2] was 93%.
Same read-out and setting: next, `N=C(NN=Cc1ccccc1)SCc1ccccc1` [Compound 2, Benzaldehyde-S-benzylisothiosemicarbazone Hydrochloride]: 85%.
Turning to `CSC(=N)NN=Cc1ccc(C)cc1` [Compound 17], in data set [2], the pest or weed control at 400 ppm turned out to be 100%.
Still for that read-out and setting: next, `CSC(=N)NN=Cc1cccc(Br)c1` [Compound 16]: 100%.
In the case of `CSC(=N)NN=Cc1cc(Cl)cc(Cl)c1O` [Compound 14], in data set [1], the virus proliferation-inhibiting index was greater than 66.7 and the IC50 amounted to 15 µg/mL (≈ 53.9 µM). For the same molecule, the pest or weed control at 400 ppm in data set [2] was determined as 98%. Besides, the CC50 at 48 h in the data set “in vitro” is greater than 1000 µg/mL.
For `CCCC(=NNC(=N)SC)c1ccccc1` [Compound 23], the pest or weed control at 400 ppm in data set [2] is 93%.
On to `CSC(=N)NN=Cc1c(Cl)cccc1Cl` [Compound 12], for which the pest or weed control at 400 ppm in data set [2] came to 100%.
For the molecule `CCCCCCCCOc1ccc(C=CC(C)=NNC(=N)SC)cc1OC` [Compound 47], the pest or weed control at 400 ppm in data set [2] worked out at 96%.
Turning to `CCOc1ccc(C(C)=NNC(=N)SC)cc1` [Compound 37], in data set [1], the virus proliferation-inhibiting index is 7.1 and the IC50 was determined as 12.5 µg/mL (≈ 49.7 µM). In data set [2], the pest or weed control at 400 ppm worked out at 89%. The CC50 at 48 h in “in vitro” came to 88.8 µg/mL (≈ 353 µM).
`CCCCCCCCOc1ccc(C(C)=NNC(=N)SC)cc1` [Compound 40]: the pest or weed control at 400 ppm in data set [2] is 85%.
Still for that read-out and setting: the value for `CCCCSC(=N)NN=C(C)c1ccc(Cl)c(Cl)c1Cl` [Compound 32] was 96%; that for `CCCCSC(=N)NN=Cc1ccc(F)cc1` [Compound 15] was 93%; that for `CSC(=N)NN=Cc1ccccc1Cl` [Compound 3] was 96%.
`CN=C(NN=Cc1cccc(Cl)c1)SC` [Compound 5, 3'-Chlorobenzaldehyde-S-methyl-4-N-methylisothiosemicarbazone Hydrochloride]: the pest or weed control at 400 ppm in data set [2] came out at 93%.
In the case of `CCCC(=NNC(=N)SC)c1ccc(Cl)cc1` [Compound 27], the pest or weed control at 400 ppm in data set [2] amounted to 100%.
Regarding `CCC(=NNC(=N)SC)c1ccc(Cl)cc1` [Compound 26], in data set [2], the pest or weed control at 400 ppm is 100%.
On the same count and under the same terms, next, `CCCCCCOc1ccc(C=CC(C)=NNC(=N)SC)cc1` [Compound 45]: 96%; `CN=C(NN=Cc1ccc(Cl)cc1)SC` [Compound 7]: 75%; `CCCCCOc1ccc(C(C)=NNC(=N)SCCCC)cc1` [Compound 39]: 100%.
In the case of `CSC(=N)NN=Cc1ccc(Cl)cc1` [Compound 6, 4'-Chlorobenzaldehyde-S-methylisothiosemicarbazone Hydrochloride], in data set [2], the pest or weed control at 400 ppm amounted to 100%.
Same read-out and setting: next, `CSC(=N)NN=Cc1ccccc1` [Compound 1]: 90%.
